Tests used:
[1] = molecular target: T1, Rat liver microsomal squalene synthase (Rattus norvegicus, UniProt Q02769); assay: In vitro inhibition of squalene synthase (rat liver microsomes, 3H-farnesyl diphosphate); format: biochemical; conditions: for inhibition at 1 µM: compared to controls with no test compound; for inhibition at 10 µM: 10 μM (footnote *), read-out: % Inhibition at 10 μM (squalene synthase, values marked *)
T1 construct: Rat liver microsomes, the source of enzyme, were prepared; from tissue; host or cells: rat liver microsomes
T1 sequence (Q02769 1-416): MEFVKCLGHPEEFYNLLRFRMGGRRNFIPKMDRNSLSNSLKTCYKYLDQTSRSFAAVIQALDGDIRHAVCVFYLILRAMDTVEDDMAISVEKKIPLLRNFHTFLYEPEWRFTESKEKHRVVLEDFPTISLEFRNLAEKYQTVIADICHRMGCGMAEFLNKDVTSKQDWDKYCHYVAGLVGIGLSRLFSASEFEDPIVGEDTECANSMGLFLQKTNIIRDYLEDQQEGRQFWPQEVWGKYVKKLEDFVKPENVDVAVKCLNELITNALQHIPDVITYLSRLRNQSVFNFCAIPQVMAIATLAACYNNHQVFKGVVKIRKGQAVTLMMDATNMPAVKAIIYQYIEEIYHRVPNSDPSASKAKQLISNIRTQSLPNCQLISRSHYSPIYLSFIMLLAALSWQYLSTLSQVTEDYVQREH
Method: In vitro inhibition of squalene synthase may be measured by the following procedure.
Rat liver microsomal squalene synthase activity was measured using radioactive farnesyl diphosphate as a substrate and quantitating squalene synthesis by counting the radioactive squalene formed.
Rat liver microsomes, the source of enzyme, were prepared according to the method of Gillies, P. J., et al., Exp. Molec. Pathol. 44: 329-339 (1986), a modification of the procedure of Erickson, S. K., and Cooper, A. D., Metabolism, 29: 991-996 (1980). Approximately 30 μg of microsomal protein was incubated for 10 minutes at 37° C. with 11 μM of ^3 H-farnesyl diphosphate, 49 mCi/mmol, and test compound in the presence of squalene (2 μL), Mg^++, KF, reduced B-nicotinamide adenine dinucleotide phosphate, dithiothreitol, and K2 PO4, pH 7.35, in a total volume of 200 μL. Oxygen was excluded from the closed incubation tube by degassing with nitrogen. The reaction was terminated by the addition of ethanolic KOH and after degassing with N2, the microsomal membranes were solubilized by heating at 60° C. for 30 minutes. The squalene was extracted into hexane, and the squalene was separated from all other radioactive molecules by passage over an activated alumina column. The solution was collected in scintillation vials, evaporated to dryness, liquid scintillation fluid was added, and the radioactivity was determined in a liquid scintillation counter. […]

[2] = molecular target: T2, Rat brain protein farnesyltransferase (Rattus norvegicus, UniProt Q02293+Q04631); assay: In vitro inhibition of protein farnesyltransferase (biotin-lamin substrate, scintillation proximity assay); format: biochemical; conditions: for inhibition at 1 µM: 1 μM (footnote *), read-out: % Inhibition at 1 μM (protein farnesyltransferase, values marked *); for inhibition at 10 µM: compared to uninhibited control
T2 construct: The enzyme was purified according to Reiss, Y., et al., Cell, 62: 81-88 (1990), utilizing steps one through three; from tissue; host or cells: rat brain
Method: In vitro inhibition of protein farnesyltransferase may be measured by the following procedure. (Procedures for determination of the inhibition of farnesylation of the oncogene protein Ras are described by Goldstein, et al., J. Biol. Chem., 266: 15575-15578 (1991) and by Singh in U.S. Pat. No. 5,245,061 both of which are incorporated herein by reference.)
Rat brain protein farnesyltransferase activity was measured using the biotin-lamin substrate (which is known to undergo farnesylation in a manner analogous to Ras protein) and radioactive farnesyl diphosphate provided by Amersham Life Science in their commercial scintillation proximity assay kit for the determination of farnesyltransferase. The enzyme was purified according to Reiss, Y., et al., Cell, 62: 81-88 (1990), utilizing steps one through three. The specific activity of the enzyme was approximately 10 nmol substrate farnesylated/mg enzyme/hour. […]

SMILES | inhibition at 1 µM [1] [%] | inhibition at 1 µM [2] [%] | inhibition at 10 µM [2] [%] | inhibition at 10 µM [1] [%]
O=C(O)C1C(C(=O)N(CCSCc2ccccc2)Cc2ccc(Oc3ccccc3)cc2)C(C(=O)O)C1C(=O)N(CCSCc1ccccc1)Cc1ccc(Oc2ccccc2)cc1 (stereo not drawn) [Example 71, (1α,2β,3β,4α)-1,3-Di[N-(2-benzylthioethyl)-N-(4-phenoxybenzyl)aminocarbonyl]cyclobutane-2,4-dicarboxylic acid] | 25 | 32 | – | –
COC(=O)CN(Cc1ccc(Oc2ccccc2)cc1)C(=O)[C@H]1[C@H](C(=O)O)[C@H](C(=O)N(CC(=O)OC)Cc2ccc(Oc3ccccc3)cc2)[C@H]1C(=O)O [Example 42, (1α,2β,3β,4α)-1,3-Di[N-methoxycarbonylmethyl-N-(4-phenoxybenzyl)aminocarbonyl]cyclobutane-2,4-dicarboxylic acid] | 36 | – | 67 | –
CCCN(Cc1ccc(Oc2ccco2)cc1)C(=O)C1C(C(=O)O)C(C(=O)N(CCC)Cc2ccc(Oc3ccco3)cc2)C1C(=O)O (stereo not drawn) [Example 54] | 23 | – | 59 | –
O=C(O)C1C(C(=O)N(Cc2ccc(Oc3ccccc3)cc2)Cc2ccco2)C(C(=O)O)C1C(=O)N(Cc1ccc(Oc2ccccc2)cc1)Cc1ccco1 (stereo not drawn) [Example 72, (1α,2β,3β,4α)-1,3-Di[N-(furan-2-ylmethyl)-N-(4-phenoxybenzyl)aminocarbonyl]cyclobutane-2,4-dicarboxylic acid] | 32 | 82 | – | –
O=C(O)[C@H]1[C@H](C(=O)N(Cc2ccc(Oc3ccccc3)cc2)C2CCC2)[C@H](C(=O)O)[C@H]1C(=O)N(Cc1ccc(Oc2ccccc2)cc1)C1CCC1 [Example 99, (1α,2β,3β,4α)-1,3-Di[N-cyclobutyl-N-(4-phenoxybenzyl)aminocarbonyl]cyclobutane-2,4-dicarboxylic acid] | 20 | – | 52 | –
CCSCCN(Cc1ccc(Oc2ccccc2)cc1)C(=O)C1C(C(=O)O)C(C(=O)N(CCSCC)Cc2ccc(Oc3ccccc3)cc2)C1C(=O)O (stereo not drawn) [Example 70, (1α,2β,3β,4α)-1,3-Di[N-(2-ethylthioethyl)-N-(4-phenoxybenzyl)aminocarbonyl]cyclobutane-2,4-dicarboxylic acid] | 76 | – | 77 | –
CCCN(Cc1ccc(Oc2ccccc2)cc1)C(=O)[C@H]1[C@H](C(=O)O)[C@H](C(=O)N(CCC)Cc2ccc(Oc3ccccc3)cc2)[C@H]1C(=O)O [Example 18, (1α,2β,3β,4α)-1,3-Di(N-propyl-N-(4-phenoxybenzyl)aminocarbonyl)cyclobutane-2,4-dicarboxylic acid] | – | – | 55 | 89
CCCN(Cc1ccc(Cc2ccccc2)cc1)C(=O)[C@H]1[C@H](C(=O)O)[C@H](C(=O)N(CCC)Cc2ccc(Cc3ccccc3)cc2)[C@H]1C(=O)O [Example 26, (1α,2β,3β,4α)-1,3-Di(N-propyl-N-(4-(benzyl)benzyl)aminocarbonyl)cyclobutane-2,4-dicarboxylic acid] | – | – | 69 | 33
CN(Cc1ccc(Oc2ccccc2)cc1)C(=O)[C@H]1[C@H](C(=O)O)[C@H](C(=O)N(C)Cc2ccc(Oc3ccccc3)cc2)[C@H]1C(=O)O [Example 14, (1α,2β,3β,4α)-1,3-Di[N-methyl-N-(4-phenoxybenzyl)aminocarbonyl]cyclobutane-2,4-dicarboxylic acid] | 47 | – | 34 | –
COc1ccc(CN(Cc2ccc(Oc3ccccc3)cc2)C(=O)[C@H]2[C@H](C(=O)O)[C@H](C(=O)N(Cc3ccc(OC)cc3)Cc3ccc(Oc4ccccc4)cc3)[C@H]2C(=O)O)cc1 [Example 89] | 47 | – | 50 | –
O=C(O)[C@H]1[C@H](C(=O)N(Cc2ccccc2)Cc2ccccc2)[C@H](C(=O)O)[C@H]1C(=O)N(Cc1ccccc1)Cc1ccccc1 [Example 33, (1α,2β,3β,4α)-1,3-Di[N,N-dibenzylaminocarbonyl]cyclobutane-2,4-dicarboxylic acid] | – | – | 64 | 43
O=C(O)[C@H]1[C@H](C(=O)N(Cc2ccc(Oc3ccccc3)cc2)Cc2ccc(Oc3ccccc3)cc2)[C@H](C(=O)O)[C@H]1C(=O)N(Cc1ccc(Oc2ccccc2)cc1)Cc1ccc(Oc2ccccc2)cc1 [Example 20, (1α,2β,3β,4α)-1,3-Di(N,N-di(4-phenoxybenzyl)aminocarbonyl)cyclobutane-2,4-dicarboxylic acid] | – | – | – | 41
O=C(O)[C@H]1[C@H](C(=O)N2CC=C(c3ccc(Oc4ccccc4)cc3)CC2)[C@H](C(=O)O)[C@H]1C(=O)N1CC=C(c2ccc(Oc3ccccc3)cc2)CC1 [Example 92, (1α,2α,3β,4β)-1,3-Di[4-(4-phenoxyphenyl)-1,2,3,6-tetrahydropyridin-1-ylcarbonyl]cyclobutane-2,4-dicarboxylic acid] | – | 45 | – | –
O=C(O)[C@H]1[C@H](C(=O)N2CCCC(c3ccccc3)C2)[C@H](C(=O)O)[C@H]1C(=O)N1CCCC(c2ccccc2)C1 (relative stereo) [Example 83, (1α,2β,3β,4α)-1,3-Di [(3-phenylpiperidin-1-yl)carbonyl]cyclobutane-2,4-dicarboxylic acid] | – | – | 37 | –
CCCN(Cc1ccc(Cn2cccc2)cc1)C(=O)C1C(C(=O)O)C(C(=O)N(CCC)Cc2ccc(Cn3cccc3)cc2)C1C(=O)O (stereo not drawn) [Example 56, (1α,2β,3β,4α)-1,3-Di[N-propyl-N-(4-(pyrrol-1-ylmethyl)benzyl)aminocarbonyl]cyclobutane-2,4-dicarboxylic acid] | – | – | 78 | –
CN(c1ccc(-c2ccccc2)cc1)C(=O)[C@H]1[C@H](C(=O)O)[C@H](C(=O)N(C)c2ccc(-c3ccccc3)cc2)[C@H]1C(=O)O [Example 23, (1α,2β,3β,4α)-1,3-Di(N-methyl-N-biphenylaminocarbonyl)cyclobutane-2,4-dicarboxylic acid] | – | – | – | 25
CCCN(CCCCOc1ccccc1)C(=O)[C@H]1[C@H](C(=O)O)[C@H](C(=O)N(CCC)CCCCOc2ccccc2)[C@H]1C(=O)O [Example 39, (1α,2β,3β,4α)-1,3-Di[N-propyl-N-(4-phenoxybutyl)aminocarbonyl]cyclobutane-2,4-dicarboxylic acid] | – | – | 66 | –
CCCN(Cc1ccc(Oc2ccccc2)cc1)C(=O)C1C(C(=O)O)C(C(=O)N(CCC)Cc2ccc(Oc3ccccc3)cc2)C1C(=O)O (stereo not drawn) [Example 47, (1α,2β,3β,4α)-1,3-Di[N-propyl-N-(4-phenoxybenzyl)aminocarbonyl]cyclobutane-2,4-dicarboxylic acid] | – | – | 50 | –
C[C@H](c1cccc2ccccc12)N(Cc1ccc(Oc2ccccc2)cc1)C(=O)[C@H]1[C@H](C(=O)O)[C@H](C(=O)N(Cc2ccc(Oc3ccccc3)cc2)[C@H](C)c2cccc3ccccc23)[C@H]1C(=O)O [Example 96, (1α,2β,3β,4α)-1,3-Di[N-((2R)-2-(1-naphthyl)eth-2-yl) -N-(4-phenoxybenzyl)aminocarbonyl]cyclobutane-2,4-dicarboxylic acid] | – | 71 | – | –
CCCN(Cc1ccc(Nc2ccccc2)cc1)C(=O)C1C(C(=O)O)C(C(=O)N(CCC)Cc2ccc(Nc3ccccc3)cc2)C1C(=O)O (stereo not drawn) [Example 62, (1α,2β,3β,4α)-1,3-Di[N-propyl-N-(4-phenylaminobenzyl)aminocarbonyl]cyclobutane-2,4-dicarboxylic acid] | – | – | 69 | –
CCCN(C(=O)C1C(C(=O)O)C(C(=O)N(CCC)c2ccc(Oc3ccccc3)cc2)C1C(=O)O)c1ccc(Oc2ccccc2)cc1 (stereo not drawn) [Example 66, (1α,2β,3β,4α)-1,3-Di[N-propyl-N-(4-phenoxyphenyl)aminocarbonyl]cyclobutane-2,4-dicarboxylic acid] | – | – | 88 | –
C[C@H](c1ccccc1)N(Cc1ccc(Oc2ccccc2)cc1)C(=O)[C@H]1[C@H](C(=O)O)[C@H](C(=O)N(Cc2ccc(Oc3ccccc3)cc2)[C@H](C)c2ccccc2)[C@H]1C(=O)O [Example 90] | – | 66 | – | –

— patent US5631401A, “Inhibitors of protein farnesyltransferase and squalene synthase” (Abbott Laboratories, priority 1995, dated 1997)
